According to patent publication US6852673B2, “Herbicidal pyridine compounds” (BASF Aktiengesellschaft, priority 1998, dated 2005):

What was measured:
Type in all cases: in vivo
Lamium purpureum (LAMPU) = assay: Pre-emergence herbicidal evaluation, purple deadnettle
Excerpt: (§1) The pre-emergence herbicidal activity of the compounds of the present invention is exemplified by the following test in which the seeds of a variety of monocotyledonous and dicotyledonous plants are seperately mixed with potting soil and planted on top of approximately one inch of soil in separate pots. After planting, the pots are sprayed with the selected aqueous acetone solution containing test compound in sufficient quantity to provide the equivalent of about 0.0125 to 0.4 kg per hectare of test compound per pot. The treated pots are then placed on greenhouse benches, watered and cared for in accordance with conventional greenhouse procedures. From 2 to 4 weeks after treatment, the tests are terminated and each pot is examined and rated according to the rating system set forth below.

Stellaria media (STEME) = assay: Pre-emergence herbicidal evaluation, chickweed
Excerpt: as §1

[1] = system: Matricaria inodora (MATIN); assay: Pre-emergence herbicidal evaluation, mayweed
Excerpt: as §1

[2] = system: Digitaria sanguinalis (DIGSA); assay: Pre-emergence herbicidal evaluation, large crabgrass
Excerpt: as §1

Solanum nigrum (SOLNI) = assay: Pre-emergence herbicidal evaluation, black nightshade
Excerpt: as §1

[3] = system: Triticum aestivum (TRZAW); assay: Pre-emergence herbicidal evaluation, winter wheat
Excerpt: as §1

[4] = system: Ipomoea hederacea (IPOHE); assay: Pre-emergence herbicidal evaluation, morning glory
Excerpt: as §1

[5] = system: Alopecurus myosuroides (ALOMY); assay: Pre-emergence herbicidal evaluation, black grass
Excerpt: as §1

Hordeum vulgare (HORVW) = assay: Pre-emergence herbicidal evaluation, winter barley
Excerpt: as §1

[6] = system: Abutilon theophrasti (ABUTH); assay: Pre-emergence herbicidal evaluation, velvetleaf
Excerpt: as §1

Setaria viridis (SETVI) = assay: Pre-emergence herbicidal evaluation, green foxtail
Excerpt: as §1

Galium aparine (GALAP) = assay: Pre-emergence herbicidal evaluation, cleaver
Excerpt: as §1

Row | Compound | LAMPU rating (Lamium purpureum (LAMPU); dose 0.025 kg/ha) | LAMPU rating (Lamium purpureum (LAMPU); dose 0.1 kg/ha) | LAMPU rating (Lamium purpureum (LAMPU); dose 0.4 kg/ha) | STEME rating (Stellaria media (STEME); dose 0.025 kg/ha) | STEME rating (Stellaria media (STEME); dose 0.1 kg/ha) | STEME rating (Stellaria media (STEME); dose 0.4 kg/ha) | MATIN rating ([1]; dose 0.025 kg/ha) | MATIN rating ([1]; dose 0.1 kg/ha) | MATIN rating ([1]; dose 0.4 kg/ha) | DIGSA rating ([2]; dose 0.025 kg/ha) | DIGSA rating ([2]; dose 0.1 kg/ha) | DIGSA rating ([2]; dose 0.4 kg/ha) | TRZAW rating ([3]; dose 0.025 kg/ha) | TRZAW rating ([3]; dose 0.1 kg/ha) | TRZAW rating ([3]; dose 0.4 kg/ha) | IPOHE rating ([4]; dose 0.025 kg/ha) | IPOHE rating ([4]; dose 0.1 kg/ha) | IPOHE rating ([4]; dose 0.4 kg/ha) | ALOMY rating ([5]; dose 0.025 kg/ha) | ALOMY rating ([5]; dose 0.1 kg/ha) | also measured
1 | CC(Cl)=CCOc1cc(C#N)cc(Oc2csc(C(F)(F)F)c2)n1 [Example 28] | 5 (5 - Definite injury) | 8 (8 - Approaching complete kill) | 8 (8 - Approaching complete kill) | 9 (9 - Complete kill) | 9 (9 - Complete kill) | 9 (9 - Complete kill) | 9 (9 - Complete kill) | 9 (9 - Complete kill) | 9 (9 - Complete kill) | 3 (3 - Moderate effect) | 9 (9 - Complete kill) | 9 (9 - Complete kill) | 0 (0 - No effect) | 0 (0 - No effect) | 1 (1 - Trace effect) | 0 (0 - No effect) | 0 (0 - No effect) | 1 (1 - Trace effect) | 3 (3 - Moderate effect) | 8 (8 - Approaching complete kill) | SOLNI rating (Solanum nigrum (SOLNI); dose 0.025 kg/ha): 4 (4 - Injury); SOLNI rating (Solanum nigrum (SOLNI); dose 0.1 kg/ha): 8 (8 - Approaching complete kill); SOLNI rating (Solanum nigrum (SOLNI); dose 0.4 kg/ha): 8 (8 - Approaching complete kill); ALOMY rating ([5]; dose 0.4 kg/ha): 9 (9 - Complete kill); HORVW rating (Hordeum vulgare (HORVW); dose 0.025 kg/ha): 0 (0 - No effect); HORVW rating (Hordeum vulgare (HORVW); dose 0.1 kg/ha): 1 (1 - Trace effect); HORVW rating (Hordeum vulgare (HORVW); dose 0.4 kg/ha): 3 (3 - Moderate effect); ABUTH rating ([6]; dose 0.025 kg/ha): 5 (5 - Definite injury); ABUTH rating ([6]; dose 0.1 kg/ha): 7 (7 - Good herbicidal effect); ABUTH rating ([6]; dose 0.4 kg/ha): 8 (8 - Approaching complete kill)
2 | CC(Cl)=CCOc1nc(Oc2cc(C(F)(F)F)nn2C)c(F)c(C)c1F [Example 35] | – | – | – | – | – | – | – | – | – | – | – | – | – | – | – | – | – | – | – | – | STEME rating (Stellaria media (STEME); dose 0.04 kg/ha): 8 (8 - Approaching complete kill); STEME rating (Stellaria media (STEME); dose 0.06 kg/ha): 9 (9 - Complete kill); STEME rating (Stellaria media (STEME); dose 0.12 kg/ha): 9 (9 - Complete kill); MATIN rating ([1]; dose 0.04 kg/ha): 9 (9 - Complete kill); MATIN rating ([1]; dose 0.06 kg/ha): 9 (9 - Complete kill); MATIN rating ([1]; dose 0.12 kg/ha): 9 (9 - Complete kill); SETVI rating (Setaria viridis (SETVI); dose 0.04 kg/ha): 8 (8 - Approaching complete kill); SETVI rating (Setaria viridis (SETVI); dose 0.06 kg/ha): 9 (9 - Complete kill); SETVI rating (Setaria viridis (SETVI); dose 0.12 kg/ha): 9 (9 - Complete kill); TRZAW rating ([3]; dose 0.04 kg/ha): 1 (1 - Trace effect); TRZAW rating ([3]; dose 0.06 kg/ha): 3 (3 - Moderate effect); TRZAW rating ([3]; dose 0.12 kg/ha): 3 (3 - Moderate effect); ALOMY rating ([5]; dose 0.04 kg/ha): 9 (9 - Complete kill); ALOMY rating ([5]; dose 0.06 kg/ha): 9 (9 - Complete kill); ALOMY rating ([5]; dose 0.12 kg/ha): 9 (9 - Complete kill)
3 | C=C(Cl)COc1cc(C)cc(Oc2cc(C(F)(F)F)nn2C)n1 [Example 36] | 7 (7 - Good herbicidal effect) | 8 (8 - Approaching complete kill) | 9 (9 - Complete kill) | 5 (5 - Definite injury) | 9 (9 - Complete kill) | 9 (9 - Complete kill) | 7 (7 - Good herbicidal effect) | 9 (9 - Complete kill) | 9 (9 - Complete kill) | 8 (8 - Approaching complete kill) | 9 (9 - Complete kill) | 9 (9 - Complete kill) | 0 (0 - No effect) | 2 (2 - Slight effect) | 2 (2 - Slight effect) | 2 (2 - Slight effect) | 3 (3 - Moderate effect) | 9 (9 - Complete kill) | 4 (4 - Injury) | 8 (8 - Approaching complete kill) | GALAP rating (Galium aparine (GALAP); dose 0.025 kg/ha): 0 (0 - No effect); GALAP rating (Galium aparine (GALAP); dose 0.1 kg/ha): 3 (3 - Moderate effect); GALAP rating (Galium aparine (GALAP); dose 0.4 kg/ha): 8 (8 - Approaching complete kill); SETVI rating (Setaria viridis (SETVI); dose 0.025 kg/ha): 9 (9 - Complete kill); SETVI rating (Setaria viridis (SETVI); dose 0.1 kg/ha): 9 (9 - Complete kill); SETVI rating (Setaria viridis (SETVI); dose 0.4 kg/ha): 9 (9 - Complete kill); ALOMY rating ([5]; dose 0.4 kg/ha): 9 (9 - Complete kill); HORVW rating (Hordeum vulgare (HORVW); dose 0.025 kg/ha): 2 (2 - Slight effect); HORVW rating (Hordeum vulgare (HORVW); dose 0.1 kg/ha): 3 (3 - Moderate effect); HORVW rating (Hordeum vulgare (HORVW); dose 0.4 kg/ha): 5 (5 - Definite injury); ABUTH rating ([6]; dose 0.025 kg/ha): 5 (5 - Definite injury); ABUTH rating ([6]; dose 0.1 kg/ha): 5 (5 - Definite injury); ABUTH rating ([6]; dose 0.4 kg/ha): 8 (8 - Approaching complete kill)
